Data as given in patent US11352365B2, “Biased potent opioid-like agonists as improved medications to treat chronic and acute pain and methods of using the same” (THE UNITED STATES OF AMERICA, AS REPRESENTED BY THE …, priority 2018, dated 2022).
Like-named read-outs stand apart in the source and are kept apart here.

Legend:
Type in all cases: cell-based
MOR [1] = target: T1, MOR (Homo sapiens, UniProt P35372); assay: cell-based; design: host or cells: U2OS-β-arrestin2-EFC-hMOR; details: for Emax: read-out: MOR Mediated B-arrestin Recruitment (% Control, Emax DAMGO)
Procedure: The PathHunter β-arrestin assay. The assay was performed according to the manufacturer's protocol (DiscoveRx) and as described previously. Briefly, 5000 U2OS-β-arrestin2-EFC-hMOR cells were plated in 384-well white plates with Opti-MEM media (Invitrogen) containing 1% FBS±pertussis toxin (100 ng/ml) overnight. The next day, cells were treated with compounds for 90 min at 37° C., followed by a 1-hour incubation of detection reagent at room temperature. Luminescence values were determined by using a Synergy HT luminometer (BioTek).

MOR [2] = target: T1, MOR; assay: cell-based; design: expressed in transfected cells; host or cells: CHO-hMOR (membrane variant); SH-SY5Y-hMOR also named
Procedure: Four thousand cells per well were split into 384-well low-volume plate (VWR) with Opti-MEM (Invitrogen) supplemented with 1% FBS for 3 hours at 37° C. except SH-SY5Y-hMOR cells, which were plated for 1 hour at 37° C. Cells were then treated with drugs, […] forskolin for 30 min at room temperature.
Cells were then homogenized by a Dounce homogenizer 15 times in an ice-cold buffer [50 mM Hepes (pH 7.4)], followed by centrifugation at 500 g at 4° C. for 5 min. The supernatant was transferred to a 1.5-ml tube on ice, and the pellet was resuspended, homogenized, and centrifuged at 500 g at 4° C. for 5 min. Then, the supernatant was combined and spun at 20,000 g at 4° C. for 10 min. The membrane pellet was resuspended in an ice-cold buffer [50 mM Hepes (pH 7.4)] at concentrations of […]. Membranes were stored at −80° C. until use. For forskolin-stimulated cAMP accumulation assay, membranes were diluted in an assay buffer (50 mM Hepes, 10 mM MgCl2, 100 mM NaCl, 200 mM adenosine 5′-triphosphate, 10 mM GTP, 100 mM 3-isobutyl-1-methylxanthine, 20 mM forskolin, and 30 mM bovine serum albumin) and plated at […] of protein in each well. Membranes were treated with test compounds for 30 min at room temperature. The cAMP levels were determined as per the manufacturer's instructions (Cisbio cAMP HiRange assay).

MOR [3] = target: T1, MOR; design: expressed in transfected cells; host or cells: CHO-hMOR (membrane variant); SH-SY5Y-hMOR also named
[4] = Table 3, read-out: MOR Mediated B-arrestin Recruitment
[5] = Table 3, inhibition of forskolin-induced cAMP accumulation, read-out: MOR cAMP Agonist Potency ± SEM
[6] = Table 3, read-out: MOR cAMP Agonist (% Efficacy) (converted)
[7] = Table 2, read-out: MOR Mediated B-arrestin Recruitment
[8] = Table 2, inhibition of forskolin-induced cAMP accumulation, read-out: MOR cAMP Agonist Potency ± SEM
[9] = Table 2, read-out: MOR cAMP Agonist (% Efficacy) (converted)

T1 sequence (P35372 whole entry): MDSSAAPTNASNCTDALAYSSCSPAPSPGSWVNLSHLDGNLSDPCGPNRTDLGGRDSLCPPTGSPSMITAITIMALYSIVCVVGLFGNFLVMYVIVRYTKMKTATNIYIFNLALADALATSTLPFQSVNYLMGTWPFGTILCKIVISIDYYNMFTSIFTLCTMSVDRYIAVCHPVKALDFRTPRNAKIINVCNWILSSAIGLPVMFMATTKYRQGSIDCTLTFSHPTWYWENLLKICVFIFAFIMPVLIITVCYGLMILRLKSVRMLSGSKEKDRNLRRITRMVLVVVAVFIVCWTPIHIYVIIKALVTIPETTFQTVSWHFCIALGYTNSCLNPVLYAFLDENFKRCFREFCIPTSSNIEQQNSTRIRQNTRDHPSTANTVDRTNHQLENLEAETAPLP

`C[C@@H]1[C@@H]2CCC[C@@]1(c1cccc(O)c1)CCN2CCc1ccccc1` (single isomer, unassigned) [(−)-48] was tested, and the EC50 (MOR [1]; [4]) was > 25000 nM and the EC50 (MOR [2]; [5]) was 12.1 ± 4.01 nM.

Work on `C[C@@H]1C2CCC[C@@]1(c1cccc(O)c1)CCN2CCc1ccccc1` (single isomer, unassigned; (-)) [(−)-48] yielded an Emax (MOR [2]; [6]) of 71%.

With `OC[C@@H]1CC[C@@]2(c3cccc(O)c3)CCN(CCc3ccccc3)[C@H]1C2` (stereo in doubt) [Compound 35, 3-(8-(Hydroxymethyl)-2-phenethyl-2-azabicyclo[3.3.1]nonan-5-yl)phenol] the EC50 (MOR [1]; [7]) was > 25000 nM, the EC50 (MOR [2]; [8]) was 3.07 ± 2.2 nM and the Emax (MOR [2]; [9]) was 10.9%. For the same molecule, the “Bias Factor” value (MOR [3]; Table 2) was 1254.

`Oc1cccc([C@]23CCC[C@H]([C@H]2O)N(C[C@H]2C[C@@H]2c2ccccc2)CC3)c1` (stereo in doubt) [Compound 45, (1R,5S,9R)-5-(3-hydroxyphenyl)-2-((trans-2-phenylcyclopropyl)methyl)-2-azabicyclo[3.3.1]nonan-9-ol] was tested, and the EC50 (MOR [1]) was 22 nM, the Emax (MOR [1]) was 22% and the EC50 (MOR [2]) was 0.12 nM. For the same molecule, the Emax (MOR [2]; read-out: MOR cAMP Agonist (% Efficacy)) was 100% and the “Bias Factor” value (MOR [3]) was 6.1.

For `Oc1cccc(C23CCC[C@H]([C@H]2O)N(C/C=C/c2ccccc2)CC3)c1` (stereo in doubt) [Compound 52, (1R,5R,9S)-2-Cinnamyl-5-(3-hydroxyphenyl)-2-azabicyclo[3.3.1]nonan-9-ol], the Emax (MOR [2]; [6]) was 100% and the “Bias Factor” value (MOR [3]; Table 3) was 27.120.

Molecule `C[C@H]1[C@H]2CCC[C@@]1(c1cccc(O)c1)CCN2CCc1ccccc1` [(+)-48] has an EC50 (MOR [1]; [4]) of 7.72 ± 4.6 nM, an Emax (MOR [1]; Table 3) of 1.8% and an EC50 (MOR [2]; [5]) of 0.4 ± 0.12 nM. For the same molecule, the Emax (MOR [2]; [6]) was 91% and the “Bias Factor” value (MOR [3]; Table 3) was 6.7.

With `C[C@@H]1[C@@H]2CCC[C@@]1(c1cccc(O)c1)CCN2CCc1ccccc1` [(−)-48] the “Bias Factor” value (MOR [3]; Table 3) was 2056.

In the case of `CCC[C@H]1[C@@H]2CCC[C@@]1(c1cccc(O)c1)CCN2CCc1ccccc1` [Compound 15, 3-(2-Phenethyl-9-propyl-2-azabicyclo[3.3.1]nonan-5-yl)phenol], the EC50 (MOR [2]; [8]) is reported as 0.95 ± 0.35 nM, the Emax (MOR [2]; [9]) is reported as 63.3% and the “Bias Factor” value (MOR [3]; Table 2) is reported as 23,442.

For `CCOC(=O)/C=C1\[C@H]2CCC[C@]1(c1cccc(O)c1)CCN2CCc1ccccc1` [Compound 26, Ethyl (Z)-2-(5-(3-hydroxyphenyl)-2-phenethyl-2-azabicyclo[3.3.1]nonan-9-ylidene)acetate], the Emax (MOR [1]; Table 2) was 22.2%, the Emax (MOR [2]; [9]) was 100% and the “Bias Factor” value (MOR [3]; Table 2) was 179.

Molecule `CCOC(=O)C[C@@H]1[C@H]2CCC[C@]1(c1cccc(O)c1)CCN2CCc1ccccc1` [Compound 27, Ethyl 2-(5-(3-hydroxyphenyl)-2-phenethyl-2-azabicyclo[3.3.1]nonan-9-yl)acetate] has an EC50 (MOR [1]; [7]) of 175 ± 42.6 nM, an Emax (MOR [1]; Table 2) of 1.5% and an EC50 (MOR [2]; [8]) of 14.6 ± 3.99 nM. For the same molecule, the Emax (MOR [2]; [9]) was 90.4% and the “Bias Factor” value (MOR [3]; Table 2) was 6.7.

`CCOC(=O)C[C@H]1[C@@H]2CCC[C@@]1(c1cccc(O)c1)CCN2CCc1ccccc1` [Compound 28, Ethyl 2-(5-(3-hydroxyphenyl)-2-phenethyl-2-azabicyclo[3.3.1]nonan-9-yl)acetate] was tested, and the EC50 (MOR [1]; [7]) was 58.8 ± 34.7 nM, the Emax (MOR [1]; Table 2) was 2.18% and the EC50 (MOR [2]; [8]) was 3.97 ± 1.8 nM. For the same molecule, the Emax (MOR [2]; [9]) was 78% and the “Bias Factor” value (MOR [3]; Table 2) was 4.8.

With `OC/C=C/[C@H]1[C@@H]2CCC[C@@]1(c1cccc(O)c1)CCN2CCc1ccccc1` [Compound 37, 3-((1S,5R,9R)-9-((E)-3-Hydroxyprop-1-en-1-yl)-2-phenethyl-2-azabicyclo[3.3.1]nonan-5-yl)phenol] the EC50 (MOR [2]; [8]) was 2.31 ± 0.78 nM, the Emax (MOR [2]; [9]) was 33.5% and the “Bias Factor” value (MOR [3]; Table 2) was 6794.

For `Oc1cccc2c1O[C@H]1CN(CCc3ccccc3)[C@H]3CCC[C@@]21C3` [Compound 70, (3S,6aR,11aR)-2-Phenethyl-1,3,4,5,6,11a-hexahydro-2H-3,6a-methano-benzofuro[2,3-c]azocin-10-ol], the EC50 (MOR [1]; [4]) was > 25000 nM, the EC50 (MOR [2]; [5]) was 0.5 ± 0.24 nM and the Emax (MOR [2]; [6]) was 32.8%. The “Bias Factor” value (MOR [3]; Table 3) was 21454.

With `C[C@@H](NC(=O)[C@@H](N)Cc1ccc(O)cc1)C(=O)NCC(=O)N(C)[C@@H](Cc1ccccc1)C(=O)NCCO` [DAMGO, reference compound] the “Bias Factor” value (MOR [3]) was 1.
